# Assay results reported in ChEMBL document CHEMBL3885881, “DrugMatrix”.
# Species: Rattus norvegicus
# Experiment: DrugMatrix - Regimen: Daily Repeat
# Format: toxicity, organism-based, Sprague-Dawley
# Design: regimen Daily Repeat, gender Male, age 6-8 weeks
# Conditions: in vivo, sc, route subcutaneous, […]; for ABSOLUTE BASOPHIL / BASOPHIL / ABSOLUTE EOSINOPHIL / ABSOLUTE LYMPHOCYTE / ABSOLUTE MONOCYTE / ABSOLUTE SEGMENTED NEUTROPHIL / EOSINOPHIL / ERYTHROCYTE COUNT / HEMATOCRIT / HEMOGLOBIN / LEUKOCYTE COUNT / LYMPHOCYTE / MEAN CORPUSCULAR HEMOGLOBIN / MEAN CORPUSCULAR HEMOGLOBIN CONCENTRATION / MEAN CORPUSCULAR VOLUME / MONOCYTE / NEUTROPHIL / NUCLEATED RED BLOOD CELLS / PLATELET COUNT: tissue Blood; for CREATININE / ALANINE AMINOTRANSFERASE / ALBUMIN / ALKALINE PHOSPHATASE / ASPARTATE AMINOTRANSFERASE / BLOOD UREA NITROGEN / CARBON DIOXIDE / CHLORIDE / CHOLESTEROL / CREATINE PHOSPHOKINASE / GLUCOSE / LACTATE DEHYDROGENASE / LIPASE / PHOSPHORUS / POTASSIUM / SODIUM / TOTAL BILIRUBIN / TOTAL PROTEIN / URIC ACID: tissue Plasma
# [1] = 0 mg/kg, 72 h, dose level Control, time 3 day
# [2] = 0 mg/kg, 120 h, dose level Control, time 5 day
# [3] = 0.1 mg/kg, 72 h, dose level Low, time 3 day
# [4] = 0.1 mg/kg, 120 h, dose level Low, time 5 day
# [5] = 2 mg/kg, 72 h, dose level M2, time 3 day
# [6] = 2 mg/kg, 120 h, dose level M2, time 5 day
smiles,measurement,setting,value
C[C@]12CC[C@@H]3c4ccc(OC(=O)c5ccccc5)cc4CC[C@H]3[C@@H]1CC[C@@H]2O [ESTRADIOL BENZOATE],ABSOLUTE BASOPHIL,[1],0 CELLS/uL
same,BASOPHIL,[1],0%
same,ABSOLUTE BASOPHIL,[2],0 CELLS/uL
same,BASOPHIL,[2],0%
same,CREATININE,[2],0.17 mg/dL
same,ABSOLUTE BASOPHIL,[3],0 CELLS/uL
same,ABSOLUTE EOSINOPHIL,[3],27.33 CELLS/uL
same,ABSOLUTE LYMPHOCYTE,[3],9086.67 CELLS/uL
same,ABSOLUTE MONOCYTE,[3],78.67 CELLS/uL
same,ABSOLUTE SEGMENTED NEUTROPHIL,[3],1407.33 CELLS/uL
same,BASOPHIL,[3],0%
same,EOSINOPHIL,[3],0.33%
same,ERYTHROCYTE COUNT,[3],6.05 x10E6/uL
same,HEMATOCRIT,[3],38.9%
same,HEMOGLOBIN,[3],13.37 G/DL
same,LEUKOCYTE COUNT,[3],10.6 x10E3/uL
same,LYMPHOCYTE,[3],85.67%
same,MEAN CORPUSCULAR HEMOGLOBIN,[3],22.27 pg
same,MEAN CORPUSCULAR HEMOGLOBIN CONCENTRATION,[3],34.73 G/DL
same,MEAN CORPUSCULAR VOLUME,[3],64.23 fL
same,MONOCYTE,[3],0.67%
same,NEUTROPHIL,[3],13.33%
same,NUCLEATED RED BLOOD CELLS,[3],0 /100WBC
same,PLATELET COUNT,[3],1490.33 x10E3/uL
same,ALANINE AMINOTRANSFERASE,[3],35.67 u/L
same,ALBUMIN,[3],4.43 G/DL
same,ALKALINE PHOSPHATASE,[3],250.67 u/L
same,ASPARTATE AMINOTRANSFERASE,[3],76 u/L
same,BLOOD UREA NITROGEN,[3],10 mg/dL
same,CARBON DIOXIDE,[3],23.67 mmol/L
same,CHLORIDE,[3],100.33 MEQ/L
same,CHOLESTEROL,[3],76.67 mg/dL
same,CREATINE PHOSPHOKINASE,[3],460 u/L
same,CREATININE,[3],0.17 mg/dL
same,GLUCOSE,[3],191.67 mg/dL
same,LACTATE DEHYDROGENASE,[3],269.67 u/L
same,LIPASE,[3],9 u/L
same,PHOSPHORUS,[3],12.77 mg/dL
same,POTASSIUM,[3],6.18 MEQ/L
same,SODIUM,[3],140.73 MEQ/L
same,TOTAL BILIRUBIN,[3],0.1 mg/dL
same,TOTAL PROTEIN,[3],5.77 G/DL
same,URIC ACID,[3],3.8 mg/dL
same,ABSOLUTE BASOPHIL,[4],0 CELLS/uL
same,ABSOLUTE EOSINOPHIL,[4],79 CELLS/uL
same,ABSOLUTE LYMPHOCYTE,[4],6274.33 CELLS/uL
same,ABSOLUTE MONOCYTE,[4],295 CELLS/uL
same,ABSOLUTE SEGMENTED NEUTROPHIL,[4],551.67 CELLS/uL
same,BASOPHIL,[4],0%
same,EOSINOPHIL,[4],1%
same,ERYTHROCYTE COUNT,[4],5.91 x10E6/uL
same,HEMATOCRIT,[4],35.77%
same,HEMOGLOBIN,[4],13.47 G/DL
same,LEUKOCYTE COUNT,[4],7.2 x10E3/uL
same,LYMPHOCYTE,[4],86.67%
same,MEAN CORPUSCULAR HEMOGLOBIN,[4],22.8 pg
same,MEAN CORPUSCULAR HEMOGLOBIN CONCENTRATION,[4],37.67 G/DL
same,MEAN CORPUSCULAR VOLUME,[4],60.53 fL
same,MONOCYTE,[4],4%
same,NEUTROPHIL,[4],8.33%
same,NUCLEATED RED BLOOD CELLS,[4],0 /100WBC
same,PLATELET COUNT,[4],1231.67 x10E3/uL
same,ALANINE AMINOTRANSFERASE,[4],39.67 u/L
same,ALBUMIN,[4],5.37 G/DL
same,ALKALINE PHOSPHATASE,[4],187.33 u/L
same,ASPARTATE AMINOTRANSFERASE,[4],63 u/L
same,BLOOD UREA NITROGEN,[4],13.67 mg/dL
same,CARBON DIOXIDE,[4],29 mmol/L
same,CHLORIDE,[4],98.33 MEQ/L
same,CHOLESTEROL,[4],96.33 mg/dL
same,CREATINE PHOSPHOKINASE,[4],578 u/L
same,CREATININE,[4],0.18 mg/dL
same,GLUCOSE,[4],128.33 mg/dL
same,LACTATE DEHYDROGENASE,[4],137 u/L
same,LIPASE,[4],10.67 u/L
same,PHOSPHORUS,[4],11.5 mg/dL
same,POTASSIUM,[4],6.15 MEQ/L
same,SODIUM,[4],142.73 MEQ/L
same,TOTAL BILIRUBIN,[4],0.1 mg/dL
same,TOTAL PROTEIN,[4],7.67 G/DL
same,URIC ACID,[4],2.73 mg/dL
same,ABSOLUTE BASOPHIL,[5],0 CELLS/uL
same,ABSOLUTE EOSINOPHIL,[5],32 CELLS/uL
same,ABSOLUTE LYMPHOCYTE,[5],8090.33 CELLS/uL
same,ABSOLUTE MONOCYTE,[5],25.67 CELLS/uL
same,ABSOLUTE SEGMENTED NEUTROPHIL,[5],718.67 CELLS/uL
same,BASOPHIL,[5],0%
same,EOSINOPHIL,[5],0.33%
same,ERYTHROCYTE COUNT,[5],5.61 x10E6/uL
same,HEMATOCRIT,[5],37.6%
same,HEMOGLOBIN,[5],14.37 G/DL
same,LEUKOCYTE COUNT,[5],8.87 x10E3/uL
same,LYMPHOCYTE,[5],91.33%
same,MEAN CORPUSCULAR HEMOGLOBIN,[5],25.63 pg
same,MEAN CORPUSCULAR HEMOGLOBIN CONCENTRATION,[5],38.23 G/DL
same,MEAN CORPUSCULAR VOLUME,[5],67.03 fL
same,MONOCYTE,[5],0.33%
same,NEUTROPHIL,[5],8%
same,NUCLEATED RED BLOOD CELLS,[5],0.33 /100WBC
same,PLATELET COUNT,[5],1211.67 x10E3/uL
same,ALANINE AMINOTRANSFERASE,[5],46.67 u/L
same,ALBUMIN,[5],3.97 G/DL
same,ALKALINE PHOSPHATASE,[5],647.67 u/L
same,ASPARTATE AMINOTRANSFERASE,[5],67.67 u/L
same,BLOOD UREA NITROGEN,[5],9.67 mg/dL
same,CARBON DIOXIDE,[5],23.33 mmol/L
same,CHLORIDE,[5],96.33 MEQ/L
same,CHOLESTEROL,[5],36.33 mg/dL
same,CREATINE PHOSPHOKINASE,[5],231.67 u/L
same,CREATININE,[5],0.28 mg/dL
same,GLUCOSE,[5],138.67 mg/dL
same,LACTATE DEHYDROGENASE,[5],103 u/L
same,LIPASE,[5],9.33 u/L
same,PHOSPHORUS,[5],10.07 mg/dL
same,POTASSIUM,[5],5.43 MEQ/L
same,SODIUM,[5],138.43 MEQ/L
same,TOTAL BILIRUBIN,[5],0.1 mg/dL
same,TOTAL PROTEIN,[5],5.77 G/DL
same,URIC ACID,[5],0.63 mg/dL
same,ABSOLUTE BASOPHIL,[6],0 CELLS/uL
same,ABSOLUTE EOSINOPHIL,[6],34.67 CELLS/uL
same,ABSOLUTE LYMPHOCYTE,[6],10740.67 CELLS/uL
same,ABSOLUTE MONOCYTE,[6],0 CELLS/uL
same,ABSOLUTE SEGMENTED NEUTROPHIL,[6],658 CELLS/uL
same,BASOPHIL,[6],0%
same,EOSINOPHIL,[6],0.33%
same,ERYTHROCYTE COUNT,[6],6.23 x10E6/uL
same,HEMATOCRIT,[6],39.53%
same,HEMOGLOBIN,[6],15 G/DL
same,LEUKOCYTE COUNT,[6],11.43 x10E3/uL
same,LYMPHOCYTE,[6],93.67%
same,MEAN CORPUSCULAR HEMOGLOBIN,[6],24.17 pg
same,MEAN CORPUSCULAR HEMOGLOBIN CONCENTRATION,[6],38 G/DL
same,MEAN CORPUSCULAR VOLUME,[6],63.5 fL
same,MONOCYTE,[6],0%
same,NEUTROPHIL,[6],6%
same,NUCLEATED RED BLOOD CELLS,[6],0 /100WBC
same,PLATELET COUNT,[6],1334 x10E3/uL
same,ALANINE AMINOTRANSFERASE,[6],47.33 u/L
same,ALBUMIN,[6],3.9 G/DL
same,ALKALINE PHOSPHATASE,[6],436.33 u/L
same,ASPARTATE AMINOTRANSFERASE,[6],73.67 u/L
same,BLOOD UREA NITROGEN,[6],13.67 mg/dL
same,CARBON DIOXIDE,[6],24.33 mmol/L
same,CHLORIDE,[6],103.67 MEQ/L
same,CHOLESTEROL,[6],34 mg/dL
same,CREATINE PHOSPHOKINASE,[6],348.33 u/L
same,CREATININE,[6],0.2 mg/dL
same,GLUCOSE,[6],160.67 mg/dL
same,LACTATE DEHYDROGENASE,[6],186.67 u/L
same,LIPASE,[6],8.67 u/L
same,PHOSPHORUS,[6],11.73 mg/dL
same,POTASSIUM,[6],5.75 MEQ/L
